Measurements reported in patent US10358434B2, “2-(3-pyridinyl)-1H-benzimidazole derivative compound and medicament containing same” (NIHON MEDI-PHYSICS CO., LTD., priority 2014, dated 2019).

What was measured:
[1] = test system: human adrenal gland section expressing aldosterone-producing adenoma; test: In vitro autoradiography using human adrenal adenoma; type: binding; conditions: section of FIG. 17(b)
Procedure, shortened: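 Autoradiography readout: PSL in equal-sized ROIs over adenoma (B2) and normal adrenal cortex (B1), expressed as B2/B1 and decay-corrected using half-life, applied activity and plate contact time. Tissue was surgically excised human adrenal, frozen and cut at 7 μm, incubated 10 min with 5-33 kBq/mL tracer in BSA-containing PBS, then imaged after 16-20 h exposure.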

[2] = Plasma stability evaluation (TLC analysis); type: in vitro ADME; conditions: 37° C., 60 minutes, TLC analysis
Experimental: Evaluation was made using a heparin-treated normal human plasma pool (Kohjin Bio Co., Ltd.). Compounds [^18F] 100, [^18F] 200, [^123I] 400, [^18F] 500, and [^123I] 601 to 610 obtained by the methods shown in Examples 2, 4, 7, 9, 11, 13, 15, 17, 19, 21, 23, 25, 27, and 29 were each added to the aforementioned human plasma (5 mL), and the obtained mixture was then incubated at 37° C. for 60 minutes. Thereafter, the mixture was centrifuged with addition of methanol, so that a deproteinization treatment was carried out. Thereafter, stability was evaluated by TLC analysis. As TLC analysis conditions, the TLC analysis conditions applied upon the above described synthesis of each compound were applied.

[3] = In vivo kinetics experiment (radioactivity distribution); parameters: species or system Wistar male rat; conditions: rat i.v., mean ± SD
Procedure, shortened: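 Tissue radioactivity (% ID/g) and adrenal-to-blood, liver, kidney, small intestine, muscle and fat ratios determined at 10, 30 and 60 min post-dose. Tracers (approximately 1 to 3.7 MBq, saline with 1 w/v % ascorbic acid) injected i.v. into caudal vein of anesthetized 9-week male Wistar rats; organs excised, weighed, counted.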

Cn1c(-c2cncc(Cn3ccnc3)c2)nc2ccc([123I])cc21 [[^123I] 607, 2-[5-{(1H-imidazol-1-yl)methyl}pyridin-3-yl]-6-[^123I]iodo-1-methyl-1H-benzo[d]imidazole]
B2/B1 accumulation ratio [1]: 0.90 | B2 (PSL value, aldosterone-producing adenoma) ([1]; site 71b): 5332 | B1 (PSL value, normal adrenal cortex) ([1]; site 72b): 5945 | Radiochemical purity after incubation in human plasma [2]: 84% | Adrenal gland/blood ratio of radioactivity accumulation ([3]; 10 min after administration): 64.15 ± 4.03 | Adrenal gland/fat ratio of radioactivity accumulation ([3]; 10 min after administration): 92.36 ± 15.53 | Adrenal gland/kidney ratio of radioactivity accumulation ([3]; 10 min after administration): 5.73 ± 1.00 | Adrenal gland/liver ratio of radioactivity accumulation ([3]; 10 min after administration): 3.85 ± 0.67 | Adrenal gland/muscle ratio of radioactivity accumulation ([3]; 10 min after administration): 64.58 ± 8.21 | Adrenal gland/small intestine ratio of radioactivity accumulation ([3]; 10 min after administration): 3.95 ± 0.40 | Radioactivity distribution Adrenal gland ([3]; 10 min after administration): 11.13 ± 0.88 % ID/g | Radioactivity distribution Bladder (including urine) ([3]; 10 min after administration): 1.20 ± 0.71 % ID/g | Radioactivity distribution Blood ([3]; 10 min after administration): 0.17 ± 0.02 % ID/g | Radioactivity distribution Fat ([3]; 10 min after administration): 0.12 ± 0.02 % ID/g | Radioactivity distribution Femur ([3]; 10 min after administration): 0.86 ± 0.02 % ID/g | Radioactivity distribution Heart ([3]; 10 min after administration): 0.66 ± 0.03 % ID/g | Radioactivity distribution Kidney ([3]; 10 min after administration): 1.96 ± 0.19 % ID/g | Radioactivity distribution Large intestine ([3]; 10 min after administration): 0.12 ± 0.02 % ID/g | Radioactivity distribution Liver ([3]; 10 min after administration): 2.93 ± 0.40 % ID/g | Radioactivity distribution Lung ([3]; 10 min after administration): 0.90 ± 0.07 % ID/g | Radioactivity distribution Muscle (lower limbs) ([3]; 10 min after administration): 0.17 ± 0.02 % ID/g | Radioactivity distribution Remaining whole body ([3]; 10 min after administration): 0.27 ± 0.03 % ID/g | Radioactivity distribution Small intestine ([3]; 10 min after administration): 2.82 ± 0.12 % ID/g | Radioactivity distribution Spleen ([3]; 10 min after administration): 4.93 ± 0.56 % ID/g | Radioactivity distribution Stomach ([3]; 10 min after administration): 0.88 ± 0.20 % ID/g | Radioactivity distribution Testis ([3]; 10 min after administration): 0.06 ± 0.01 % ID/g | Radioactivity distribution Whole brain ([3]; 10 min after administration): 0.03 ± 0.00 % ID/g | Adrenal gland/blood ratio of radioactivity accumulation ([3]; 30 min after administration): 163.89 ± 22.78 | Adrenal gland/fat ratio of radioactivity accumulation ([3]; 30 min after administration): 109.60 ± 14.02 | Adrenal gland/kidney ratio of radioactivity accumulation ([3]; 30 min after administration): 12.63 ± 4.53 | Adrenal gland/liver ratio of radioactivity accumulation ([3]; 30 min after administration): 15.55 ± 2.37 | Adrenal gland/muscle ratio of radioactivity accumulation ([3]; 30 min after administration): 114.11 ± 13.20 | Adrenal gland/small intestine ratio of radioactivity accumulation ([3]; 30 min after administration): 2.89 ± 0.23 | Radioactivity distribution Adrenal gland ([3]; 30 min after administration): 14.61 ± 1.60 % ID/g | Radioactivity distribution Bladder (including urine) ([3]; 30 min after administration): 2.79 ± 0.51 % ID/g | Radioactivity distribution Blood ([3]; 30 min after administration): 0.09 ± 0.00 % ID/g | Radioactivity distribution Fat ([3]; 30 min after administration): 0.13 ± 0.01 % ID/g | Radioactivity distribution Femur ([3]; 30 min after administration): 0.98 ± 0.16 % ID/g | Radioactivity distribution Heart ([3]; 30 min after administration): 0.54 ± 0.05 % ID/g | Radioactivity distribution Kidney ([3]; 30 min after administration): 1.24 ± 0.36 % ID/g | Radioactivity distribution Large intestine ([3]; 30 min after administration): 0.12 ± 0.01 % ID/g | Radioactivity distribution Liver ([3]; 30 min after administration): 0.94 ± 0.06 % ID/g | Radioactivity distribution Lung ([3]; 30 min after administration): 0.72 ± 0.05 % ID/g | Radioactivity distribution Muscle (lower limbs) ([3]; 30 min after administration): 0.13 ± 0.00 % ID/g | Radioactivity distribution Remaining whole body ([3]; 30 min after administration): 0.27 ± 0.03 % ID/g | Radioactivity distribution Small intestine ([3]; 30 min after administration): 5.06 ± 0.42 % ID/g | Radioactivity distribution Spleen ([3]; 30 min after administration): 6.69 ± 1.24 % ID/g | Radioactivity distribution Stomach ([3]; 30 min after administration): 1.17 ± 0.29 % ID/g | Radioactivity distribution Testis ([3]; 30 min after administration): 0.09 ± 0.02 % ID/g | Radioactivity distribution Whole brain ([3]; 30 min after administration): 0.02 ± 0.00 % ID/g | Adrenal gland/blood ratio of radioactivity accumulation ([3]; 60 min after administration): 241.20 ± 39.48 | Adrenal gland/fat ratio of radioactivity accumulation ([3]; 60 min after administration): 194.91 ± 44.02 | Adrenal gland/kidney ratio of radioactivity accumulation ([3]; 60 min after administration): 18.18 ± 3.94 | Adrenal gland/liver ratio of radioactivity accumulation ([3]; 60 min after administration): 27.59 ± 4.15 | Adrenal gland/muscle ratio of radioactivity accumulation ([3]; 60 min after administration): 177.15 ± 43.41 | Adrenal gland/small intestine ratio of radioactivity accumulation ([3]; 60 min after administration): 3.39 ± 0.53 | Radioactivity distribution Adrenal gland ([3]; 60 min after administration): 18.47 ± 2.05 % ID/g | Radioactivity distribution Bladder (including urine) ([3]; 60 min after administration): 2.99 ± 1.26 % ID/g | Radioactivity distribution Blood ([3]; 60 min after administration): 0.08 ± 0.01 % ID/g | Radioactivity distribution Fat ([3]; 60 min after administration): 0.10 ± 0.02 % ID/g | Radioactivity distribution Femur ([3]; 60 min after administration): 1.17 ± 0.10 % ID/g | Radioactivity distribution Heart ([3]; 60 min after administration): 0.43 ± 0.08 % ID/g | Radioactivity distribution Kidney ([3]; 60 min after administration): 1.04 ± 0.19 % ID/g | Radioactivity distribution Large intestine ([3]; 60 min after administration): 0.16 ± 0.03 % ID/g | Radioactivity distribution Liver ([3]; 60 min after administration): 0.67 ± 0.04 % ID/g | Radioactivity distribution Lung ([3]; 60 min after administration): 0.65 ± 0.15 % ID/g | Radioactivity distribution Muscle (lower limbs) ([3]; 60 min after administration): 0.11 ± 0.02 % ID/g | Radioactivity distribution Remaining whole body ([3]; 60 min after administration): 0.26 ± 0.01 % ID/g | Radioactivity distribution Small intestine ([3]; 60 min after administration): 5.48 ± 0.49 % ID/g | Radioactivity distribution Spleen ([3]; 60 min after administration): 6.95 ± 0.95 % ID/g | Radioactivity distribution Stomach ([3]; 60 min after administration): 1.52 ± 0.61 % ID/g | Radioactivity distribution Testis ([3]; 60 min after administration): 0.11 ± 0.02 % ID/g | Radioactivity distribution Whole brain ([3]; 60 min after administration): 0.02 ± 0.00 % ID/g
